{
  "source": "patent US20230059022A1",
  "about": "“PRUSSIAN BLUE ZnO CARBON NANOTUBE COMPOSITE FOR MEASURING HYDROGEN PEROXIDE IN CANCER CELLS” (Middle Tennessee State University, priority 2020, published 2023)",
  "assay_type_in_all_cases": "cell-based",
  "key": {"[1]": {"test_system": "BT20 cancer cells", "test": "ELISA (Amplex Red hydrogen peroxide release assay) of BT20 cells", "settings": "single replicate wells", "method": "(§1) BT20 and 4T1 cells were purchased from American Type Culture Collection (ATCC). Both cell lines were maintained in RPMI-1640 medium (Sigma-Aldrich) with 10% Fetal Bovine Serum (FBS) (Gibco) at 37° C. with 5% CO2. The medium was renewed every two days. Well-grown BT20 cells in logarithmic phase were digested by 0.25% (w/v) Trypsin (Fisher Scientific) from the original culture flask and mixed well before being seeded on a 96-well cell culture plate (Denville Scientific) with a density of 5×10^4 cells/mL and incubated with the same full medium at 37° C. with 5% CO2 for 24 h. Cells were then treated with 100 μL of 50 μM doxonibicin (Dox) (Sigma-Aldrich). Cells treated with 100 μL of vehicle (RPMI-1640 medium) only served as a control. The Dox group and control group each had eight replicate wells. After 24 h of incubation, 50 μL of the medium was collected from each well and proceeded for hydrogen peroxide determination.\nThe hydrogen peroxide release assay was carried on using Amplex™ Red Hydrogen Peroxide/Peroxidase Assay Kit (Invitrogen) according to the instruction. […] After incubation at room temperature in the dark for 30 min, the absorbance of each well at 560 nm of was measured with a CLARIOstar™ microplate reader (BMG Labtech). The concentration of hydrogen peroxide in the sample was calculated according to the standard curve. […]"}, "[2]": {"test_system": "BT20 cancer cells", "test": "SAM CA (chronoamperometry with standard addition) of hydrogen peroxide release from BT20 cells", "method": "as §1, with “Cells treated with 100 μL of vehicle (RPMI-1640 medium) only served as a control. The Dox group and control group each had eight replicate wells. After 24 h of incubation, 50 μL of the medium was collected from each well and proceeded for hydrogen peroxide determination.” left out\n(§2) Electrochemical activity of the PB/ZnO/COOH-MWNTs was studied using cyclic voltammetry (CV) and chronoamperometry (CA) using AfterMath™ software ver 1.2.5658 and a WaveNano™ potentiostat (Pine Research Instrument Co., Raleigh, N.C., USA). […] The concentrations of hydrogen peroxide in BT20 cancer cells were measured chronoamperometrically, employing the standard addition method (CA SAM). Samples were measured by standard additions of hydrogen peroxide in increasing order to create the calibration curve needed to determine the unknown hydrogen peroxide concentration in the cancer cells. BT20 and 4T1 cancer cells were cultured and the concentration of hydrogen peroxide in the cancer cells analyzed using this sensor. […]"}, "[3]": {"test_system": "4T1 cancer cells", "test": "ELISA (Amplex Red hydrogen peroxide release assay) of 4T1 cells"}, "[4]": {"test_system": "4T1 cancer cells", "test": "SAM CA (chronoamperometry with standard addition) of hydrogen peroxide release from 4T1 cells", "method": "as §1, with “Cells treated with 100 μL of vehicle (RPMI-1640 medium) only served as a control. The Dox group and control group each had eight replicate wells. After 24 h of incubation, 50 μL of the medium was collected from each well and proceeded for hydrogen peroxide determination.” left out\nas §2"}},
  "note": "Values joined by “and” are separate entries in the source; they are usually repeats but may differ in a detail not shown here. Equal entries are not always repeated.",
  "data": [
    {"smiles": "COc1cccc2c1C(=O)c1c(O)c3c(c(O)c1C2=O)C[C@@](O)(C(=O)CO)C[C@@H]3O[C@H]1C[C@H](N)[C@H](O)[C@H](C)O1", "note": "[Dox, doxonibicin]", "values": [
      {"measurement": "H2O2 from Dox-treated BT20 cancer cells, ELISA results", "setting": "[1]", "value": "5.0152 μM and 5.3182 μM (2×) and 5.6212 μM (2×) and 6.0758 μM and 6.9848 μM and 4.4091 μM"},
      {"measurement": "hydrogen peroxide concentration in Dox-treated BT20 cancer cells (mean)", "setting": "[2]; 48 h Dox-treated BT20 cells, CA SAM, n=6", "value": "16.0 ± 1.4", "unit": "µM"},
      {"measurement": "H2O2 from Dox-treated BT20 cancer cells, SAM CA", "setting": "[2]; BT20 cells, Dox treated, single replicates, SAM CA", "value": "15.1 μM and 15.88 μM (2×) and 17.47 μM (2×) and 14.42 μM"},
      {"measurement": "H2O2 from Dox treated 4T1 cancer cells, ELISA results", "setting": "[3]; Dox treated, single replicate wells", "value": "1.9605 µM and 2.0921 µM and 2.4868 µM and 2.75 µM and 2.8816 µM and 2.6184 µM and 3.0132 µM and 1.8289 µM"},
      {"measurement": "difference in hydrogen peroxide between Dox-treated and untreated 4T1 cells by ELISA", "setting": "[3]; p=0.8932", "value": "no statistical difference"},
      {"measurement": "H2O2 from Dox treated 4T1 cancer cells, SAM CA", "setting": "[4]; 4T1 cells, Dox treated, single replicates, SAM CA", "value": "14 µM and 15.6 µM and 16 µM"},
      {"measurement": "concentration of hydrogen peroxide released in Dox-treated 4T1 cancer cells (mean)", "setting": "[4]; Dox-treated 4T1 cells, CA SAM, n=3, p=0.0182 vs untreated", "value": 15.2, "unit": "µM"}
    ]}
  ]
}
